Square brackets hold non-standard residues; d marks the D form. Peptide text beside a SMILES is read from it. * marks the point of attachment. dPhe(4-NHCONH2) = NC(=O)Nc1ccc(C[C@@H](N)C(=O)O)cc1; Dihydroorotyl(S) = O=C1C[C@@H](C(=O)*)NC(=O)N1; dPhe(4-Cl) = N[C@H](Cc1ccc(Cl)cc1)C(=O)O; Phe(4-NH2) = Nc1ccc(C[C@H](N)C(=O)O)cc1; d2Nal = N[C@H](Cc1ccc2ccccc2c1)C(=O)O; Lys(iPr) = CC(C)NCCCC[C@H](N)C(=O)O; d3Pal = N[C@H](Cc1cccnc1)C(=O)O
Tests used:
luteinizing hormone (LH) = assay: CS21: serum LH over time; type: in vivo, human
Description: Finally, the study evaluated the pharmacokinetics of the degarelix dosing regimens investigated.
The secondary efficacy endpoints were: the proportion of patients with testosterone surge during the first 2 weeks of treatment; the proportion of patients with testosterone level ≤0.5 ng/mL at day 3; the percentage change in PSA from baseline to day 28; the probability of testosterone ≤0.5 ng/mL from day 56 through day 364; the levels of serum testosterone, LH, FSH and PSA over time through the study; the time to PSA failure, defined as two consecutive increases of 50%, and at least 5 ng/mL as compared to nadir; degarelix concentration over the first month and trough levels at day 308 and 336; the frequency and size of testosterone increases at day 255 and/or 259 compared to the testosterone level at day 252; the quality of life on days 0, 28, 84, 168 and end of study visit; the frequency and intensity of hot flushes experienced (scored daily from study start until end of study visit. In addition, two further secondary endpoints were added: the probability of sufficient testosterone response from day 28 through day 364 (a patient was considered to have insufficient testosterone response if they had one testosterone value >1.0 ng/mL or two consecutive testosterone values >0.5 ng/mL at day 28 onwards); and the percentage change in PSA from baseline to Day 14.

[1] = CS21: incidence rates of cardiovascular events per 1,000 person years (Poisson model), by risk-factor subgroup; details: for Coronary artery disease, % of patients / Coronary artery disease, incidence rate / HLGT Cardiac arrhythmias, % of patients / HLGT Cardiac arrhythmias, incidence rate / HLGT Central nervous system vascular disorders, % of patients / HLGT Central nervous system vascular disorders, incidence rate / HLGT Coronary artery disorders, % of patients / HLGT Coronary artery disorders, incidence rate / HLGT Heart failures, % of patients / HLGT Heart failures, incidence rate / Heart failure, % of patients / Heart failure, incidence rate / MI, % of patients / MI, incidence rate / Stroke, % of patients / Stroke, incidence rate: in vivo
Description: The SCS summarizes both crude incidences (n/N) as well as incidence rates of adverse events (number of patients with at least one adverse event investigated per 1,000 person years) including exact 95% CI based on the Poisson model and presented per MedDRA Preferred term (and grouped by SOC) for all study-groups, including the CS21 trial (the trial comprising the controlled phase 3 study group) and for all sub-groups. Briefly, the Poisson model provides exact 1-α lower (LL) and upper (UL) confidence limits are LL=χ2x; α/2^2/(2T) and UL=χ2(x+1); 1-α/2^2/(2T), respectively, where T is the number of 1,000 person years and x=number of subjects at least once having reported the adverse event under investigation (see Gerlinger et al. (2003) Eur. J. Contracept. Reprod. Health Care 8:87-92).
These P values were presented as *(0.01<P≤0.05), ** (0.001<P≤0.01), and *** (P≤0.001). Similarly, incidence rates were compared using P values associated with the Poison model-based UMPU test. Briefly, assuming xi˜Poisson(λiTi), where xi=the number of subjects with the event, Ti=total number of 1,000 person years in arm i and λi=incidence rate in arm i (i=1,2), then the P value=2 min ([…], P(S≤x1), 0.5), where S˜Binomial (x1+x2, T1/(T1+T2)) (see, e.g. Lehmann (1986) Testing Statistical Hypotheses, 2nd edition, Springer-Verlag, New York).
In the SCS, cardiovascular events were more specifically investigated on more aggregated MedDRA levels, i.e. the incidence, and incidence rates of subject with AEs in the following High Level Group Terms were tabulated by study group and treatment:
These subgroup analyses were not pre-planned as part of the SCS.

[2] = CS21: mortality by treatment group; type: in vivo, human
Description: The death of a patient enrolled in this study was not considered an event per se, but rather an outcome. Any event resulting in a fatal outcome was fully documented and reported, including death, which occurred within the four weeks after treatment end, and regardless of the causality relationship to the IMP.
Mortality Subgroups with Statistically (Pre-Planned as Part of the ISS) Significant Findings

| Structure (SMILES) | median LH level (luteinizing hormone (LH); day 1) [IU/L] | Coronary artery disease, % of patients [1] | Coronary artery disease, incidence rate [1] | HLGT Cardiac arrhythmias, % of patients [1] | HLGT Cardiac arrhythmias, incidence rate [1] | HLGT Central nervous system vascular disorders, % of patients [1] | HLGT Central nervous system vascular disorders, incidence rate [1] | HLGT Coronary artery disorders, % of patients [1] | HLGT Coronary artery disorders, incidence rate [1] | HLGT Heart failures, % of patients [1] | HLGT Heart failures, incidence rate [1] | Heart failure, % of patients [1] | Heart failure, incidence rate [1] | MI, % of patients [1] | MI, incidence rate [1] | Stroke, % of patients [1] | Stroke, incidence rate [1] | Crude Mortality ([2]; Age >=65-<75) | Mortality per 1,000 PY, estimate ([2]; Age >=65-<75) | No. of Deaths ([2]; Age >=65-<75) | also measured |
| --- | --- | --- | --- | --- | --- | --- | --- | --- | --- | --- | --- | --- | --- | --- | --- | --- | --- | --- | --- | --- | --- |
| CC(=O)N[C@H](Cc1ccc2ccccc2c1)C(=O)N[C@H](Cc1ccc(Cl)cc1)C(=O)N[C@H](Cc1cccnc1)C(=O)N[C@@H](CO)C(=O)N[C@@H](Cc1ccc(NC(=O)[C@@H]2CC(=O)NC(=O)N2)cc1)C(=O)N[C@H](Cc1ccc(NC(N)=O)cc1)C(=O)N[C@@H](CC(C)C)C(=O)N[C@@H](CCCCNC(C)C)C(=O)N1CCC[C@H]1C(=O)N[C@H](C)C(N)=O [Degarelix, D-Alaninamide, N-acetyl-3-(2-naphthalenyl)-D-alanyl-4-chloro-D-phenylalanyl-3-(3-pyridinyl)-D-alanyl-L-seryl-4-[[[(4S)-hexahydro-2,6-dioxo-4-pyrimidinyl]carbonyl]amino]-L phenylalanyl-4-[(aminocarbonyl)amino]-D-phenylalanyl-L leucyl-N6-(1-methylethyl)-L-lysyl-L-prolyl] (Ac-[d2Nal][dPhe(4-Cl)][d3Pal]S[Phe(4-NH2)](Dihydroorotyl(S))[dPhe(4-NHCONH2)]L[Lys(iPr)]P[dA]-NH2) | < 0.7 | (3%) | 34.2 per 1,000 person years | (5%) | 57.7 per 1,000 person years | (<1%) | 14.2 per 1,000 person years | (3%) | 34.2 per 1,000 person years | (<1%) | 14.1 per 1,000 person years | (1%) | 14.1 per 1,000 person years | (<1%) | 5.64 per 1,000 person years | (<1%) | 8.49 per 1,000 person years | (2%) | 20.2 per 1,000 PY | 3 | decrease in median LH from baseline (luteinizing hormone (LH); day 1): approximately 88%; Cardiac arrhythmias, relative risk degarelix vs Lupron ([1]; BMI 25-<30 kg/m2): 0.566; Cardiac disorders (SOC), relative risk degarelix vs Lupron ([1]; BMI 25-<30 kg/m2): 0.765; Coronary artery disorders, relative risk degarelix vs Lupron ([1]; BMI 25-<30 kg/m2): 1.013; Cardiac arrhythmias, relative risk degarelix vs Lupron ([1]; BMI <25 kg/m2): 0.312; Cardiac disorders (SOC), relative risk degarelix vs Lupron ([1]; BMI <25 kg/m2): 0.242; Coronary artery disorders, relative risk degarelix vs Lupron ([1]; BMI <25 kg/m2): 0.000; Coronary artery disorders, relative risk degarelix vs Lupron ([1]; BMI <25 kg/m2, listed as degarelix): 0.0; Cardiac arrhythmias, relative risk degarelix vs Lupron ([1]; BMI >=30 kg/m2): 3.161; Cardiac disorders (SOC), relative risk degarelix vs Lupron ([1]; BMI >=30 kg/m2): 1.946; Coronary artery disorders, relative risk degarelix vs Lupron ([1]; BMI >=30 kg/m2): 1.217; Cardiac arrhythmias, relative risk degarelix vs Lupron ([1]; Cholesterol <4 mmol/L): 1.973; Cardiac arrhythmias, relative risk degarelix vs Lupron ([1]; Cholesterol >=4 mmol/L): 0.411; Cardiac arrhythmias, relative risk degarelix vs Lupron ([1]; Cholesterol >=4 mmol/L, listed as degarelix): 0.41; Crude Mortality ([2]; PCA = Localized): (0%); Mortality per 1,000 PY, estimate ([2]; PCA = Localized): 0 per 1,000 PY; No. of Deaths ([2]; PCA = Localized): 0 |
| CCNC(=O)[C@@H]1CCCN1C(=O)[C@H](CCCNC(=N)N)NC(=O)[C@H](CC(C)C)NC(=O)[C@@H](CC(C)C)NC(=O)[C@H](Cc1ccc(O)cc1)NC(=O)[C@H](CO)NC(=O)[C@H](Cc1c[nH]c2ccccc12)NC(=O)[C@H](Cc1c[nH]cn1)NC(=O)[C@@H]1CCC(=O)N1 [Leuprolide, leuprolide, reference compound] | 31.0 | (5%) | 63.4 per 1,000 person years | (8%) | 100 per 1,000 person years | (<1%) | 5.63 per 1,000 person years | (5%) | 63.4 per 1,000 person years | (2%) | 28.4 per 1,000 person years | (2%) | 28.4 per 1,000 person years | (2%) | 22.6 per 1,000 person years | (<1%) | 5.63 per 1,000 person years | (8%) | 99.0 per 1,000 PY | 6 | median LH level (luteinizing hormone (LH); by day 56 until day 364): 0.035 IU/L; increase in median LH from baseline (luteinizing hormone (LH); day 1, leuprolide 7.5 mg): > 400%; Crude Mortality ([2]; PCA = Localized): (6%); Mortality per 1,000 PY, estimate ([2]; PCA = Localized): 70.3 per 1,000 PY; No. of Deaths ([2]; PCA = Localized): 4 |

— patent US11766468B2, “Method of treating prostate cancer with GnRH antagonist” (priority 2012, dated 2023)
